# Tests used:
# [1] = system: MHCC97H; experiment: CCK8 experiment, proliferation of liver cancer cell line; type: cell-based, human; settings: for effect on proliferation: CCK8 growth curves 0-72 hours, inhibitor 10 μM, 20 μM
# Experimental: (§1) 7. CCK8 experiment 1) On the first day, after routine trypsinization and counting of cells in a 60 mm culture dish, 5000 cells/well, inoculated 4 96-well plates. 2) On the second day, after about 24 hours of culture, the cell growth was in the logarithmic phase. […] Took a 96-well plate and added 10% CCK8, 100 μl/well, and measured the OD value at 0 hour at 450 nm wavelength after 1 hour. Cell-free well was a blank background. 3) On the third day, added 10% CCK8 to a 96-well plate, and measured the OD value at 24 hours at 450 nm wavelength after 1 hour. 4) On the fourth day, added 10% CCK8 to a 96-well plate, and measured the OD value at 48 hours at 450 nm wavelength after 1 hour. 5) On the fifth day, added 10% CCK8 to a 96-well plate, and measured the OD value at 72 hours at 450 nm wavelength after 1 hour. 6) Summarized the OD values at all time points and drew growth curves. 8. Cell migration experiment
# [2] = system: Huh7; experiment: as above; type: cell-based, human; settings: for effect on proliferation: Huh7, CCK8 growth curves 0-72 hours, inhibitor 10 μM, 20 μM
# Experimental: as §1
# [3] = system: HepG2; experiment: as above; type: cell-based, human; settings: CCK8 growth curves 0-72 hours, inhibitor 10 μM, 20 μM or SOAT1 knockdown
# [4] = system: transcription factor SREBF2; experiment: Expression of cholesterol regulation and tumor invasion molecules (FIG. 8); type: cell-based
# [5] = system: leukemia Jurkat cell line; experiment: Proliferation of other tumor cell lines; type: cell-based, human; settings: FIG. 7
# Experimental: (§2) 1) On the first day, after routine trypsinization and counting of cells in a 60 mm culture dish, 5000 cells/well, inoculated 4 96-well plates.
# (§3) 2) On the second day, after about 24 hours of culture, the cell growth was in the logarithmic phase. Replaced with a new culture medium added with different concentrations of SOAT1 inhibitor, 100 μl/well, set 10 μM, 20 μM concentration group and control group respectively, the control group was 1% DMSO, each group had 3 repetitive wells. Took a 96-well plate and added 10% CCK8, 100 μl/well, and measured the OD value at 0 hour at 450 nm wavelength after 1 hour. Cell-free well was a blank background.
# (§4) 3) On the third day, added 10% CCK8 to a 96-well plate, and measured the OD value at 24 hours at 450 nm wavelength after 1 hour.
# (§5) 4) On the fourth day, added 10% CCK8 to a 96-well plate, and measured the OD value at 48 hours at 450 nm wavelength after 1 hour.
# (§6) 5) On the fifth day, added 10% CCK8 to a 96-well plate, and measured the OD value at 72 hours at 450 nm wavelength after 1 hour.
# (§7) 6) Summarized the OD values at all time points and drew growth curves. 8. Cell migration experiment
# [6] = system: breast cancer MCF7 cell line; experiment: Proliferation of other tumor cell lines; type: cell-based, human; settings: MCF7, FIG. 7
# Experimental: as §2, §3, §4, §5, §6, §7
# [7] = system: Cervical cancer Hela cell line; experiment: Proliferation of other tumor cell lines; type: cell-based, human; settings: FIG. 7
# Experimental: as §2, §3, §4, §5, §6, §7
# [8] = system: non-small cell lung cancer A549 cell line; experiment: Proliferation of other tumor cell lines; type: cell-based, human; settings: A549, FIG. 7
# Experimental: as §2, §3, §4, §5, §6, §7
# [9] = system: colon cancer HCT116 cell line; experiment: Proliferation of other tumor cell lines; type: cell-based, human; settings: HCT116, FIG. 7
# Experimental: as §2, §3, §4, §5, §6, §7
# [10] = system: esophageal cancer ECA109 cell line; experiment: Proliferation of other tumor cell lines; type: cell-based, human; settings: ECA109, FIG. 7
# Experimental: as §2, §3, §4, §5, §6, §7
# [11] = system: ITGB4; experiment: Expression of cholesterol regulation and tumor invasion molecules (FIG. 8); type: cell-based
# [12] = system: TGFBR1; experiment: as above; type: cell-based
# [13] = system: ITGAV; experiment: as above; type: cell-based
# [14] = system: HepG2; experiment: Cell migration experiment (transwell); type: cell-based, human; settings: 20-24 hours, Avasimibe concentration 10 μM or SOAT1 knockdown
# Experimental: as §7
# (§8) (1) Starving cells: Withdrew the whole medium, washed twice with PBS, and replaced with serum-free DMEM.
# (§9) (2) Added 2.5% serum of DMEM to the transwell lower chamber, 600 ul/well. Equilibrated overnight in a 37° C. incubator. Thetranswell chamber was 3422 of
# (§10) (3) Added trypsin to digest the hungry cells from yesterday (about 30-50 seconds at room temperature), quickly and carefully sucked up the trypsin, added 1 ml of complete medium, and collected in a 1.5 ml centrifuge tube;
# (§11) (4) Centrifuged at 800 rpm for 4 min; discarded the supernatant, added serum-free DMEM, and washed once; centrifuged again for 4 min at 800 rpm; discarded the supernatant and added 0.5% FBS in DMEM;
# (§12) 100 μl/well was added to the tanswell upper chamber. The third day (20-24 hours later): (6) Discarded the culture medium; (7) Fixed with anhydrous methanol for 20 minutes; (8) Air-dried the film; (9) Pinched the cotton of the cotton swab to flat and rotated it to clean the upper chamber cells. Wrapped the tweezers with a cotton ball to gently wipe off the edge cells. (10) 0.5% crystal violet staining; (11) Rinsed slowly with clean water; (12) Observed and took pictures under an inverted microscope. 9. Western blot detection was done by conventional methods. 10. Statistical analysis
# [15] = system: PLC/PRF/5; experiment: Cell migration experiment (transwell); type: cell-based, human; settings: 20-24 hours, Avasimibe concentration 10 μM or SOAT1 knockdown
# Experimental: as §7, §8, §9, §10, §11, §12
# [16] = system: extracellular uptake receptor (LDLR); experiment: Expression of cholesterol regulation and tumor invasion molecules (FIG. 8); type: cell-based
# [17] = system: PLC/PRF/5; experiment: CCK8 experiment, proliferation of liver cancer cell line; type: cell-based, human
# Experimental: as §2, §3, §4, §5, §6, §7
compound,measurement,setting,value
"CSc1cc(C)nc(SC)c1NC(=O)CN1CCN(CCSc2nc3ccccc3[nH]2)CC1.Cl [K604, 2-[4-[2-(benzimidazol-2-ylthio)ethyl]piperazin-lyl]-N-[2,4-bis(methylthio)-6-methyl-3-pyridyl]acetamide]",effect on proliferation,[1],significantly inhibited the proliferation
same,effect on proliferation,[2],significantly inhibited the proliferation
Avasimibe,effect on proliferation,[3],significantly inhibit the proliferation
same,effect on expression of SREBF2,[4],significantly inhibit the expression
same,effect on proliferation,[5],significantly inhibited the proliferation
same,effect on proliferation,[6],significantly inhibited the proliferation
same,effect on proliferation,[7],significantly inhibited the proliferation
same,effect on proliferation,[8],significantly inhibited the proliferation
same,effect on proliferation,[9],significantly inhibited the proliferation
same,effect on proliferation,[10],significantly inhibited the proliferation
same,effect on expression of ITGB4,[11],significantly inhibit the expression
same,effect on expression of TGFBR1,[12],significantly inhibit the expression
same,effect on expression of ITGAV,[13],significantly inhibit the expression
same,effect on migration,[14],significantly reduce the migration
same,effect on migration,[15],significantly reduce the migration
same,effect on proliferation,[1],significantly inhibit the proliferation
same,IC50,[1]; FIG. 5A,25.2 µM
same,IC50,"[2]; Huh7, FIG. 5A",6.8 µM
same,effect on proliferation,[2],significantly inhibit the proliferation
same,effect on expression of LDLR,[16],significantly inhibit the expression
same,IC50,"[17]; PLC/PRF/5, FIG. 5A",6.9 µM
same,effect on proliferation,"[17]; PLC/PRF/5, CCK8 growth curves 0-72 hours, inhibitor 10 μM, 20 μM or SOAT1 knockdown",significantly inhibit the proliferation
